Experimental data: patent US20200016059A1, “PERSONAL CARE COMPOSITIONS WITH GLUTATHIONE PRECURSOR COMPRISING NICOTINAMIDE AND AMINO ACIDS” (Conopco, Inc., d/ba UNILEVER, priority 2016, published 2020)

How the values were obtained:
Format in all cases: cell-based
Aged Human Keratinocytes = experiment: Glutathione assay (total glutathione, GSH-GSSG Glo) after menadione challenge; settings: for Mean (uM glutathione): Table 1A; for % Protection (improvement vs. vehicle control + menadione): glutathione
Text: The medium was refreshed every 2-3 days. Subsequently, cells were trypsinized at 90% confluency and seeded at a density of 1×10^4 per well into 96-well plates with white wall and clear bottom. […] The concentration of all amino acids constituting the GAP mixture used in this assay are designated in the data tables, and fully described in the abbreviations list below. After one or two hours of pre-treatment with GAP (and additional test reagents where described), keratinocytes were then challenged with 25 uM menadione (Sigma-Aldrich), a known inducer of oxidative stress. […] In summary, after cell treatment, the media was removed and replaced with a cell lysis reagent for 5 minutes at 20-25° C.; note, all remaining steps were also conducted at 20-25° C. Next, a luciferase generation reagent was added to each well and incubated for 30 minutes. Following this step, a luciferin detection reagent was added to each well and plates were incubated for 15 minutes. Finally, plates were then read for luminescence in a FlexStation 3 plate reader (Molecular Devices). Total glutathione levels were calculated after interpolation of glutathione concentrations from a standard curve. Experimental conditions were typically conducted in at least triplicate determinations. Statistical significance was calculated using 1-way ANOVA. Percent protection was calculated by using the calculated glutathione levels from each experiment in the following equation: […]

Human Keratinocytes [1] = experiment: Reactive oxygen species (ROS) assay, CellROX green; settings: for % Protection (improvement vs. vehicle control + menadione): ROS
Protocol: The medium was refreshed every other day. Subsequently, cells were trypsinized at 90% confluency and seeded at a density of 1-2×10^4 per well into 96-well plates with black wall and clear bottom. On the second day after seeding, cell medium was replaced with Hank's Balanced Salt Solution (HBSS) with or without menadione (10-25 uM), GAP (typically at 49 uM pyroglutamic acid, 60 uM cystine, 194 uM glycine), GAP vehicle (0.2 mM NaOH, pH 7.5), above-described additional test reagents, combinations of GAP with additional test reagents, or L-cystine esters alone and incubated for additional 18 hours. For ROS detection, CellROX green (Life Tech, Thermo Fisher Scientific, Rockford, USA) reagent was added into each well to a final concentration of 15-25 uM and incubated for additional 2-4 hours at 37° C. in a humidified incubator. The ROS fluorescence was detected using a Tecan microplate reader (Excitation/Emission=490/525). […] Where indicated, percent protection was calculated as a comparison to menadione alone treatment, using the measured relative fluorescent units in the following equation: ROS levels were evaluated together with cell viability because it is possible to get a false negative for ROS if treatment is so toxic that at the time of assay, cells are dead (and there are no longer any detectable ROS). Decrease in ROS levels is meaningful if cells are still viable.

Human Keratinocytes [2] = experiment: Cell viability assay (CCK-8); settings: for % Protection (improvement vs. vehicle control + menadione): cell viability
Protocol: The medium was refreshed every other day. Subsequently, cells were trypsinized at 90% confluency and seeded at a density of 2×10^4 per well into 96-well transparent tissue culture plates. On the second day after seeding, cell medium was replaced with treatments as described above in ROS assay section. After 18 hours, […] (CCK-8) reagent (Dojindo, Kumamoto, Japan) was diluted 1:10 in HBSS and incubated with cells for 4 h at 37° C. in a humidified incubator. Optical absorption at 450 nm was measured using a Tecan Safire2 plate reader. […] Where indicated, percent protection was calculated as a comparison to menadione alone treatment, using the measured relative absorbance units in the following equation: […]

[3] = Table 1A glutathione, test reagent at 0.5 mM, alone or with GAP 10, + 25 uM menadione
[4] = Table 1A glutathione, test reagent at 5 mM, alone or with GAP 10, + 25 uM menadione
[5] = Table 1A glutathione, test reagent at 10 mM, alone or with GAP 10, + 25 uM menadione
[6] = nicotinamide / nicotinamide riboside / picolinamide at 0.5 mM, alone or with GAP 10, + 25 uM menadione
[7] = nicotinamide / picolinamide at 5 mM, alone or with GAP 10, + 25 uM menadione
[8] = nicotinamide / picolinamide at 10 mM, alone or with GAP 10, + 25 uM menadione
[9] = Table 1B, vs menadione alone, nicotinamide 10 mM, GAP typically 49/60/194 uM
[10] = cystine ester at 40 uM + menadione
[11] = cystine ester at 80 uM + menadione
[12] = cystine ester at 20 uM + menadione
[13] = cystine ester at 160 uM + menadione

Row | SMILES | % Protection (Aged Human Keratinocytes; [3]) | % Protection (Aged Human Keratinocytes; [4]) | % Protection (Aged Human Keratinocytes; [5]) | Mean (uM glutathione) (Aged Human Keratinocytes; [6]) | Mean (uM glutathione) (Aged Human Keratinocytes; [7]) | Mean (uM glutathione) (Aged Human Keratinocytes; [8]) | Mean (μm glutathione) (Aged Human Keratinocytes; [11]) | % Protection (improvement vs. vehicle control + menadione) (Aged Human Keratinocytes; [11]) | % Protection (improvement vs. vehicle control + menadione) (Human Keratinocytes [1]; [12]) | % Protection (improvement vs. vehicle control + menadione) (Human Keratinocytes [1]; [10]) | % Protection (improvement vs. vehicle control + menadione) (Human Keratinocytes [1]; [11]) | % Protection (improvement vs. vehicle control + menadione) (Human Keratinocytes [1]; [13]) | % Protection (improvement vs. vehicle control + menadione) (Human Keratinocytes [2]; [12]) | % Protection (improvement vs. vehicle control + menadione) (Human Keratinocytes [2]; [10]) | % Protection (improvement vs. vehicle control + menadione) (Human Keratinocytes [2]; [11]) | % Protection (improvement vs. vehicle control + menadione) (Human Keratinocytes [2]; [13]) | Cell viability (% of vehicle control) (Human Keratinocytes [2]; [12]) | Cell viability (% of vehicle control) (Human Keratinocytes [2]; [10]) | Cell viability (% of vehicle control) (Human Keratinocytes [2]; [11]) | Cell viability (% of vehicle control) (Human Keratinocytes [2]; [13]) | further results
1 | NC(=O)c1cccnc1 [Nicotinamide] | 0% | 0% | 1% | 0.17 µM | 0.14 µM | 0.20 µM |  |  |  |  |  |  |  |  |  |  |  |  |  |  | % Protection (Aged Human Keratinocytes; Table 2A glutathione, nicotinamide at 5 mM, alone or with amino acids, + menadione): 3^1%; Mean (Glutathione Synthesis) (Aged Human Keratinocytes; Table 2A, nicotinamide at 5 mM, alone or with amino acids, + menadione): 0.13^1; ROS production (% of control) (Human Keratinocytes [1]; Table 1B, + menadione, 18 h, nicotinamide 10 mM, GAP typically 49 uM pyroglutamic acid, 60 uM cystine, 194 uM glycine): 231.00^3 % of control; % Protection (ROS) (Human Keratinocytes [1]; [9]): 17.70^3%; cell viability (% of control) (Human Keratinocytes [2]; Table 1B, + menadione, 18 h, nicotinamide 10 mM, GAP typically 49/60/194 uM): 92.90^3 % of control; % Protection (cell viability) (Human Keratinocytes [2]; [9]): 15.41^3%
2 | NC(=O)c1ccccn1 [Picolinamide, picolinamide] | 2% | 0% | 0% | 0.23 µM | 0.18 µM | 0.16 µM |  |  |  |  |  |  |  |  |  |  |  |  |  |  | 
3 | CC(C)(C)OC(=O)[C@@H](N)CSSC[C@H](N)C(=O)OC(C)(C)C.Cl.Cl [DTBC, Ditert-butyl L-cystinate dihydrochloride] |  |  |  |  |  |  | 0.19^1 μm | 1^1% | 2.2% | 13.8^1,2% | 28.4^1,2% | 41.1^1,2% | 6.0% | 3.0% | −0.1% | 41.3^2% | 78.1^1 % of vehicle control | 75.9^1 % of vehicle control | 73.6^1 % of vehicle control | 104.2^2 % of vehicle control | Mean (μm glutathione) (Aged Human Keratinocytes; [10]): 0.17^1 μm; % Protection (improvement vs. vehicle control + menadione) (Aged Human Keratinocytes; [10]): 0^1%
4 | COC(=O)[C@@H](N)CSSC[C@H](N)C(=O)OC.Cl.Cl [CDME, L-Cystine dimethyl ester dihydrochloride] |  |  |  |  |  |  | 1.09^1,2 μm | 31^1,2% | 18.2^2% | 15.5^1,2% | 13.3^1,2% | 25.7^2% | 30.2^1,2% | 33.4^1,2% | 24.6^1,2% | 51.7^1,2% | 90.9^1,2 % of vehicle control | 93.1^1,2 % of vehicle control | 87.0^1,2 % of vehicle control | 105.9^1,2 % of vehicle control | 
5 | NC(=O)c1ccc[n+]([C@@H]2O[C@H](CO)[C@@H](O)[C@H]2O)c1 [Nicotinamide riboside, nicotinamide riboside] | 0% |  |  | 0.16 µM |  |  |  |  |  |  |  |  |  |  |  |  |  |  |  |  | 
6 | CCOC(=O)[C@@H](N)CSSC[C@H](N)C(=O)OCC.Cl.Cl [DEC, Diethyl L-cystinate dihydrochloride] |  |  |  |  |  |  | 2.72^1,2 μm | 93^1,2% | 38.0^1,2% | 43.6^1,2% | 37.7^1,2% | 32.4^1,2% | 48.9^2% | 72.7^1,2% | 78.3^1,2% | 65.9^1,2% | 109.8^2 % of vehicle control | 127.3^1,2 % of vehicle control | 131.5^1,2 % of vehicle control | 122.3^1,2 % of vehicle control | Mean (μm glutathione) (Aged Human Keratinocytes; [10]): 0.54^1,2 μm; % Protection (improvement vs. vehicle control + menadione) (Aged Human Keratinocytes; [10]): 13^1,2%
